Measurements from US20250262195A1, “METHOD TO PREVENT AND TREAT DIABETIC RETINOPATHY BY CALCIUM CHANNEL BLOCKERS, ANGIOTENSIN CONVERTING ENZYME INHIBITORS, AND ANGIOTENSIN RECEPTOR BLOCKERS” (priority 2022, published 2025).

Key:
Format in all cases: in vivo, human
[1] = tested on: patients with diabetic retinopathy; test: Experimental use: vasodilators applied to patients' eyes, progression monitored at follow-up appointments; settings: applied to the eye; based on prior experience and observation during treatment of patients
[2] = tested on: patient diagnosed with diabetic retinopathy; test: Treatment of a patient diagnosed with diabetic retinopathy, one eye treated and the other left untreated
From the text: A patient is diagnosed with diabetic retinopathy. A composition comprising the calcium channel blocker nifedipine is directly applied to the vitreous surface of one eye while the other eye is left untreated. […] A patient is diagnosed with diabetic retinopathy. A composition comprising the ACE inhibitor enalapril is directly applied to the vitreous surface of one eye while the other eye is left untreated. […] A patient is diagnosed with diabetic retinopathy. A composition comprising the angiotensin receptor blocker losartan is directly applied to the vitreous surface of one eye while the other eye is left untreated. […] A patient is diagnosed with diabetic retinopathy. A composition comprising the calcium channel blocker nifedipine is applied to the eye by intravitreal or intraocular injection while the other eye is left untreated. […] A patient is diagnosed with diabetic retinopathy. A composition comprising the ACE inhibitor enalapril is applied to the eye by intravitreal or intraocular injection while the other eye is left untreated. […] A patient is diagnosed with diabetic retinopathy. A composition comprising the angiotensin receptor blocker losartan is applied to the eye by intravitreal or intraocular injection while the other eye is left untreated.

[3] = tested on: patient successfully treated for diabetic retinopathy; test: Prevention of recurrence in a patient successfully treated for diabetic retinopathy, one eye treated and the other left untreated; settings: untreated eye shows signs of recurrence
From the text: A composition comprising the calcium channel blocker nifedipine is directly applied to the vitreous surface of one eye while the other eye is left untreated. […] A composition comprising the ACE inhibitor enalapril is directly applied to the vitreous surface of one eye while the other eye is left untreated. […] A composition comprising the angiotensin receptor blocker losartan is directly applied to the vitreous surface of one eye while the other eye is left untreated. […] A composition comprising the calcium channel blocker nifedipine is applied to the eye by intravitreal or intraocular injection while the other eye is left untreated. […] A composition comprising the ACE inhibitor enalapril is applied to the eye by intravitreal or intraocular injection while the other eye is left untreated. […] A composition comprising the angiotensin receptor blocker losartan is applied to the eye by intravitreal or intraocular injection while the other eye is left untreated.

[4] = tested on: patient with diabetic retinopathy; test: Topical ramiprilat formulation to the eye of a patient with diabetic retinopathy
Procedure: In this example, a patient with diabetic retinopathy is administered a topical formulation comprising ramiprilat to the eye. […] The diabetic retinopathy is therefore treated by the topical formulation.

[5] = composition applied by intravitreal or intraocular injection
[6] = composition directly applied to the vitreous surface of one eye

| Compound | effectiveness for the treatment of diabetic retinopathy or its symptoms [1] | symptoms of diabetic retinopathy, treated eye compared to untreated eye [2, 5] | symptoms of diabetic retinopathy, treated eye compared to untreated eye [2, 6] | development (recurrence) of diabetic retinopathy in the treated eye [3, 5] | development (recurrence) of diabetic retinopathy in the treated eye [3, 6] | further results |
| --- | --- | --- | --- | --- | --- | --- |
| CCCC(=O)OCOC(=O)C1=C(C)NC(C)=C(C(=O)OC)C1c1cccc(Cl)c1Cl (stereo not drawn) [clevidipine] | effective |  |  |  |  |  |
| CCOC(=O)[C@H](CCc1ccccc1)N[C@@H](C)C(=O)N1CCC[C@H]1C(=O)O [enalapril] |  | reduced symptoms of diabetic retinopathy | reduced symptoms of diabetic retinopathy | not develop diabetic retinopathy | not develop diabetic retinopathy |  |
| COC(=O)C1=C(C)NC(C)=C(C(=O)OC(C)C)C1c1cccc2nonc12 (stereo not drawn) [isradipine] | effective |  |  |  |  |  |
| CCCCc1nc(Cl)c(CO)n1Cc1ccc(-c2ccccc2-c2nn[nH]n2)cc1 [losartan] |  | reduced symptoms of diabetic retinopathy | reduced symptoms of diabetic retinopathy | not develop diabetic retinopathy | not develop diabetic retinopathy |  |
| Ramiprilat |  |  |  |  |  | capillary blood supply to the eye [4]: increases the capillary blood supply; capillary networks in the eye [4]: grows capillary networks; diabetic retinopathy outcome [4]: treated; intraocular pressure [4]: reduction in intraocular pressure; optic nerve [4]: repair to the optic nerve |
